The text below walks through data of patent US11459324B2, “O-glycoprotein-2-acetamido-2-deoxy-3-D-glycopyranosidase inhibitors” (BIOGEN MA INC., priority 2018, dated 2022).

Structures are written as SMILES. pIC50: −log10 of the molar value.

The target of the assay is T1, Recombinant full length human OGA enzyme (Homo sapiens, UniProt O60502).
T1 construct: Recombinant full length human OGA enzyme was purchased from Origene; purchased Origene
T1 sequence (O60502 1-916): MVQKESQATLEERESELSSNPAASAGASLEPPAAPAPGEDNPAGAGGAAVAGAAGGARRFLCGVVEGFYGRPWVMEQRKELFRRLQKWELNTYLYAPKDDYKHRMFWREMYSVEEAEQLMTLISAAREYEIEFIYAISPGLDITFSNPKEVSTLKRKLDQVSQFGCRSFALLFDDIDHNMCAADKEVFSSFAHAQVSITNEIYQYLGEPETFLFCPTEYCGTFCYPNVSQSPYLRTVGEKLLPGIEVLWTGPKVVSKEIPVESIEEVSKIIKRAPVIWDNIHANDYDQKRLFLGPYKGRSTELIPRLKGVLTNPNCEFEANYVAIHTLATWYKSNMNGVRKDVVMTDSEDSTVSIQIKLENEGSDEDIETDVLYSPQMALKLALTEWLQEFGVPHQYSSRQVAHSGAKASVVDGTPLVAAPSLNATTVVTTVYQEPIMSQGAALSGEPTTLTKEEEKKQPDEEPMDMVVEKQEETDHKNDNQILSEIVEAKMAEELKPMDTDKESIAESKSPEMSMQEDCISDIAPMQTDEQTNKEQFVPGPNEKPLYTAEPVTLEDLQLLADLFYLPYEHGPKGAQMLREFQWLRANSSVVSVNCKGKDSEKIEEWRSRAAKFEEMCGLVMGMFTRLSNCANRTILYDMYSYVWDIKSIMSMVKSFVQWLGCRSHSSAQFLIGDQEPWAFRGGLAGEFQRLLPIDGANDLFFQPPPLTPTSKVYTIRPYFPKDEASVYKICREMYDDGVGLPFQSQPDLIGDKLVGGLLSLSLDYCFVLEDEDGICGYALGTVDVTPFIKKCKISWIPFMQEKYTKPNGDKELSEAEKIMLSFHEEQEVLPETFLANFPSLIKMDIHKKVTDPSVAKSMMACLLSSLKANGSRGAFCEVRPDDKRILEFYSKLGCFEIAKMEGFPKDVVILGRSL
Put plainly: OGA Enzyme Inhibition Biochemical Assay. Particulars: 1 nM OGA, 100 μM 4-MUGlcNAc (Km), pH 6.4, 90 minutes at room temperature, 10-point dose-response from 20 μM. Here is the method:
OGA Enzyme Inhibition Biochemical Assay
Recombinant full length human OGA enzyme was purchased from Origene. 4-MUGlCNAc substrate was purchased from Sigma. All other reagents were purchased from Sigma or Fisher. Assay buffer consists of the McIlvaine buffer system, pH 6.4 (0.2M Na2HPO4 mixed with 0.1M citric acid) and 0.01% BSA. Reactions consist of 1 nM OGA, 100 μM 4-MUGlcNAc (Km), and compound in a final volume of 10 μl. Reactions were incubated for 90 minutes at room temperature and quenched with 40 μl of 3M glycine, pH 10 and read on a Perkin Elmer Envision plate reader (Ex: 355 nm/Em: 460 nm). Compounds were tested with a 10-point dose-response starting from 20 μM with a 4-fold dilution. Data was fit using GraphPad Prism using a 4-parameter fit with variable slope.
Consider `CC(=O)Nc1ncc(CN2CCCC(Cc3cccnc3)C2)s1` (centres unmarked) [Example 1-27, N-(5-((3-(pyridin-3-ylmethyl)piperidin-1-yl)methyl)thiazol-2-yl)acetamide], for which the pIC50 is 7.96. With `CC(=O)Nc1ncc(CN2CCCC(Cc3ccccc3)C2)s1` (centres unmarked) [Example 1-28, N-(5-((3-benzylpiperidin-1-yl)methyl)thiazol-2-yl)acetamide], the pIC50 is 7.28. Turning to `CC(=O)Nc1ncc(CN2CCCC(Cc3cccc(C)n3)C2)s1` (centres unmarked) [Example 1-29, N-(5-((3-((6-methylpyridin-2-yl)methyl)piperidin-1-yl)methyl)thiazol-2-yl)acetamide], the pIC50 was 8.70. Under `CC(=O)Nc1ncc(CN2CCCC(Cc3cncc(C(F)(F)F)c3)C2)s1` (centres unmarked) [Example 1-30, N-(5-((3-((5-(trifluoromethyl)pyridin-3-yl)methyl)piperidin-1-yl)methyl)thiazol-2-yl)acetamide] stands 7.52; under `CC(=O)Nc1ncc(CN2CCCC(Cc3ccc(C)cn3)C2)s1` (centres unmarked) [Example 1-31, N-(5-((3-((5-methylpyridin-2-yl)methyl)piperidin-1-yl)methyl)thiazol-2-yl)acetamide], 8.30.

On to `COc1cncc(CC2CCCN(Cc3cnc(NC(C)=O)s3)C2)n1` (centres unmarked) [Example 1-32, N-(5-((3-((6-methoxypyrazin-2-yl)methyl)piperidin-1-yl)methyl)thiazol-2-yl)acetamide], for which the pIC50 is 8.70. Turning to `CC(=O)Nc1ncc(CN2CCCC(Cc3cncc(C)n3)C2)s1` (centres unmarked) [Example 1-33, N-(5-((3-((6-methylpyrazin-2-yl)methyl)piperidin-1-yl)methyl)thiazol-2-yl)acetamide], the pIC50 was 8.40. Consider `CC(=O)Nc1ncc(CN2CCCC(Cc3nc(C)cs3)C2)s1` (centres unmarked) [Example 1-34, N-(5-((3-((4-methylthiazol-2-yl)methyl)piperidin-1-yl)methyl)thiazol-2-yl)acetamide], for which the pIC50 was 8.30. As for `CC(=O)Nc1ncc(CN2CCCC(Cc3ncc(C)s3)C2)s1` (centres unmarked) [Example 1-35, N-(5-((3-((5-methylthiazol-2-yl)methyl)piperidin-1-yl)methyl)thiazol-2-yl)acetamide], the pIC50 was 8.30. As for `CC(=O)Nc1ncc(CN2CCCC(Cc3csc(C)n3)C2)s1` (centres unmarked) [Example 1-36, N-(5-((3-((2-methylthiazol-4-yl)methyl)piperidin-1-yl)methyl)thiazol-2-yl)acetamide], the pIC50 is 7.52. Consider `CC(=O)Nc1ncc(CN2CCCC(Cc3cncs3)C2)s1` (centres unmarked) [Example 1-37, N-(5-((3-(thiazol-5-ylmethyl)piperidin-1-yl)methyl)thiazol-2-yl)acetamide], for which the pIC50 was 8.40. In the case of `CC(=O)Nc1ncc(CN2CCCC(Cc3cscn3)C2)s1` (centres unmarked) [Example 1-38, N-(5-((3-(thiazol-4-ylmethyl)piperidin-1-yl)methyl)thiazol-2-yl)acetamide], the pIC50 is 7.51. In the case of `CC(=O)Nc1ncc(CN2CCCC(Cc3nccs3)C2)s1` (centres unmarked) [Example 1-39, N-(5-((3-(thiazol-2-ylmethyl)piperidin-1-yl)methyl)thiazol-2-yl)acetamide], the pIC50 is 7.96.

Turning to `CC(=O)Nc1ncc(CN2CCCC(Cc3ccncc3)C2)s1` (centres unmarked) [Example 1-40, N-(5-((3-(pyridin-4-ylmethyl)piperidin-1-yl)methyl)thiazol-2-yl)acetamide], the pIC50 is 8.40. Take `CCc1cc2c(CC3CCCN(Cc4cnc(NC(C)=O)s4)C3)ncnc2s1` (centres unmarked) [Example 1-41, N-(5-((3-((6-ethylthieno[2,3-d]pyrimidin-4-yl)methyl)piperidin-1-yl)methyl)thiazol-2-yl)acetamide]: the pIC50 was 9.00.

Turning to `CCc1cc2ncnc(CC3CCCN(Cc4cnc(NC(C)=O)s4)C3)c2s1` (centres unmarked) [Example 1-42, N-(5-((3-((6-ethylthieno[3,2-d]pyrimidin-4-yl)methyl)piperidin-1-yl)methyl)thiazol-2-yl)acetamide], the pIC50 was 8.70. As for `CC(=O)Nc1ncc(CN2CCCC(Cc3nc(C)nc4ccsc34)C2)s1` (centres unmarked) [Example 1-43, N-(5-((3-((2-methylthieno[3,2-d]pyrimidin-4-yl)methyl)piperidin-1-yl)methyl)thiazol-2-yl)acetamide], the pIC50 is 8.52.

With `CC(=O)Nc1ncc(CN2CCCC(Cc3ncnc4ccsc34)C2)s1` (centres unmarked) [Example 1-44, N-(5-((3-(thieno[3,2-d]pyrimidin-4-ylmethyl)piperidin-1-yl)methyl)thiazol-2-yl)acetamide], the pIC50 was 8.70. As to `CC(=O)Nc1ncc(CN2CCCC(Cc3cc(C)ccn3)C2)s1` (centres unmarked) [Example 1-45, N-(5-((3-((4-methylpyridin-2-yl)methyl)piperidin-1-yl)methyl)thiazol-2-yl)acetamide], the pIC50 is 7.62. Regarding `CC(=O)Nc1ncc(CN2CCCC(Cc3ncccc3C(F)(F)F)C2)s1` (centres unmarked) [Example 1-46, N-(5-((3-((3-(trifluoromethyl)pyridin-2-yl)methyl)piperidin-1-yl)methyl)thiazol-2-yl)acetamide], the pIC50 is 7.60.

Take `CC(=O)Nc1ncc(CN2CCCC(Cc3ccn(C)n3)C2)s1` (centres unmarked) [Example 1-47, N-(5-((3-((1-methyl-1H-pyrazol-3-yl)methyl)piperidin-1-yl)methyl)thiazol-2-yl)acetamide]: the pIC50 is 7.80.

For `COc1nccc(CC2CCCN(Cc3cnc(NC(C)=O)s3)C2)c1C` (centres unmarked) [Example 2-3, N-(5-((3-((2-methoxy-3-methylpyridin-4-yl)methyl)piperidin-1-yl)methyl)thiazol-2-yl)acetamide], the pIC50 was 8.70. Regarding `COc1cnc(CC2CCCN(Cc3cnc(NC(C)=O)s3)C2)nc1` (centres unmarked) [Example 2-4, N-(5-((3-((5-methoxypyrimidin-2-yl)methyl)piperidin-1-yl)methyl)thiazol-2-yl)acetamide], the pIC50 was 8.70. Turning to `CC(=O)Nc1ncc(CN2CCCC(Cc3ccc(F)cn3)C2)s1` (centres unmarked) [Example 2-5, N-(5-((3-((5-fluoropyridin-2-yl)methyl)piperidin-1-yl)methyl)thiazol-2-yl)acetamide], the pIC50 is 7.64. Turning to `COc1nc(C[C@H]2CCCN(Cc3cnc(NC(C)=O)s3)C2)ncc1F` [Example 2-6, (R)-N-(5-((3-((5-fluoro-4-methoxypyrimidin-2-yl)methyl)piperidin-1-yl)methyl)thiazol-2-yl)acetamide], the pIC50 is 8.10.

As to `CC(=O)Nc1ncc(CN2CCC[C@H](Cc3ncc(F)c(C)n3)C2)s1` [Example 2-7, (R)-N-(5-((3-((5-fluoro-4-methylpyrimidin-2-yl)methyl)piperidin-1-yl)methyl)thiazol-2-yl)acetamide], the negative logarithm of the IC50 (pIC50) is 8.52.

With `CC(=O)Nc1ncc(CN2CCC[C@H](Cc3ccc(C(F)F)nc3)C2)s1` [Example 2-8, (R)-N-(5-((3-((6-(difluoromethyl)pyridin-3-yl)methyl)piperidin-1-yl)methyl)thiazol-2-yl)acetamide], the pIC50 is 7.74. Consider `CC(=O)Nc1ncc(CN2CCC[C@H](Cc3ncc(C(F)(F)F)cn3)C2)s1` [Example 2-9, (R)-N-(5-((3-((5-(trifluoromethyl)pyrimidin-2-yl)methyl)piperidin-1-yl)methyl)thiazol-2-yl)acetamide], for which the pIC50 is 7.52. As for `CC(=O)Nc1ncc(CN2CCCC(F)(Cc3ncc(F)cn3)C2)s1` (centres unmarked) [Example 2-12, N-(5-((3-fluoro-3-((5-fluoropyrimidin-2-yl)methyl)piperidin-1-yl)methyl)thiazol-2-yl)acetamide], the pIC50 was 6.62. For `CC(=O)Nc1ncc(CN2CC(Cc3ncc(F)cn3)CC(F)(F)C2)s1` (centres unmarked) [Example 2-13, N-(5-((3,3-difluoro-5-((5-fluoropyrimidin-2-yl)methyl)piperidin-1-yl)methyl)thiazol-2-yl)acetamide], the pIC50 was 6.35. With `CC(=O)Nc1ncc(CN2CCC(F)(F)C(Cc3ncc(F)cn3)C2)s1` (centres unmarked) [Example 2-14, N-(5-((4,4-difluoro-3-((5-fluoropyrimidin-2-yl)methyl)piperidin-1-yl)methyl)thiazol-2-yl)acetamide] the figure was 7.92.

`CC(=O)Nc1ncc(CN2CCC(Cc3ccccn3)C2)s1` (centres unmarked) [Example 2-15, N-(5-((3-(pyridin-2-ylmethyl)pyrrolidin-1-yl)methyl)thiazol-2-yl)acetamide]: the negative logarithm of the IC50 (pIC50) is 7.08.

As a reminder, the pIC50 is the negative decadic logarithm of the IC50, by convention in mol/L.
